Square brackets hold non-standard residues; d marks the D form. Ends that are not written are not given here. Sta = CC(C)C[C@H](N)[C@@H](O)CC(=O)O
Key:
β-secretase [1] = target: T1, β-secretase (Homo sapiens, UniProt P56817); test: QTL/QTP assay for β-secretase activity with quencher-tether-biotin peptide substrates; type: biochemical
Protocol: In a 384-well plate, […] of β-secretase peptide substrate solution of appropriate concentration was mixed with a given amount of β-secretase enzyme in a total volume of […] in assay buffer. In the same plate, a control experiment was also set up where the same amount of peptide was taken in assay buffer but no enzyme was added. The experiments were usually done in triplicate sets for both sample and control. After a given time period of incubation at CRT, the fluorescent polymer in polymer buffer was added to the sample and control wells. The well plate was shaken inside the plate reader and the fluorescence intensity of the samples was measured. The difference in relative fluorescence units between sample and control wells is a measure of enzyme activity.
In the above example, the polymer can include any of the following: • A. Biotin binding protein (BBP) functionalized polystyrene latex carboxylic acid microspheres that are coated with conjugated polymer 1; • B. Solution complex of BBP and biotinylated polymer 2; • C. Microspheres as in A that are doped with a small amount of Phycoerythrin or related fluorescent protein conjugated to biotin; • D. Solution Sensor as in B doped with a small amount of Phycoerythrin or related fluorescent protein conjugated to biotin; and • E. Covalent conjugate of Phycoetythrin or another fluorescent protein and BBP. […]
The assay performance was further improved when the polymer microsphere sample A was doped with a small amount of Biotin-R-Phycoerythrin (Biotin-R-PE) conjugate. In one experiment, BSEC-1, BSEC-3 (a,b) (same peptide substrate synthesized by different vendors) and BSEC-4 were all exposed to β-secretase enzyme under identical conditions to compare their efficiencies in the assay. Polymer sample C was prepared fresh just before the start of experiment by mixing together Polymer A and Biotin-R-PE in a ratio designed to provide 5×10^6 microspheres doped with 100 fmol of Biotin-R-PE per well in a volume of 10 μL.
To 5 μL of a 300 nM solution of each peptide substrate in assay buffer in separate wells was added 10 ng of β-secretase enzyme in 5 μL of assay buffer to start the reactions. Each reaction was performed in triplicate. Controls were performed for each peptide without enzyme in quadruplicate. The samples were incubated at CRT for 60 minutes. At the end of the incubation period, the Biotin-R-PE doped polymer C was added to each well. The plate was shaken in the plate reader for 60 seconds, then probed for emission at 576 nm by exciting at 440 nm and using 475 nm cut-off filter. BSEC-1 gave RFU values of 6270±196 for control and 9645±152 for sample. BSEC-3a gave RFUs of 7656±20 for control and 15022±743 for sample while BSEC-3b gave RFUs of 6054±41 and 12265±913 for control and sample respectively. In comparison, BSEC-4 gave values of 9207±364 and 9732±319 for control and sample respectively.
The polymer solution sensor B was prepared by mixing together 56.5 nmol of Avidin (Biotin binding protein, BBP) and 848 nmol of biotinylated PPE polymer 2 in a total volume of 11.3 μL and incubating at CRT for 24 hours. The polymer and the BBP combine with each other through the biotin-avidin interaction to form stable entities. The solution sensor thus prepared was diluted appropriately with polymer buffer at the beginning of each experiment.
To 5 μL of a 400 nM solution of BSEC-1 in assay buffer in a 384 well plate was added 30 ng of β-secretase dissolved in 5 μL of assay buffer. The mixture was made in triplicate and incubated for 30 minutes at CRT. The control wells contained only peptide and no enzyme. After incubation, a 100-fold dilution of the above solution sensor was added at 20 μL to each well. The plate was shaken inside the microplate reader and the wells were probed by exciting the polymer at 440 nm and measuring emission intensity at 530 run. The control wells gave an average RFU value of 5400±200 and the sample wells containing enzyme gave RFU of 8350±200. […]

β-secretase [2] = target: T1, β-secretase; test: QTL assay for inhibition of β-secretase activity by a known inhibitor; type: biochemical; conditions: for delta-over-control RFU: BSEC-1 substrate, 30 ng β-secretase, 15 minutes, Polymer A, without inhibitor 4468±85
Excerpt: In another embodiment, the QTL assay is capable of detecting the inhibition of β-secretase activity in unknown samples. Whereas, in the absence of any inhibitory substance in the reaction mixture, the enzyme would cleave a large portion of the reactive tether present, in the presence of an effective inhibitor, the enzyme loses most of its activity. The QTL assay provides evidence of partial or total inhibition of enzyme activity through a lowering or complete lack of “fluorescence recovery” in such samples.
The structure of the statine-derived peptide inhibitor of β-secretase is given below:
STA-200 is a well-known inhibitor of β-secretase activity. To 2.5 μL of an 800 nM solution of BSEC-1 in assay buffer was added 30 ng of β-secretase and the volume made up to a total of 10 μL with assay buffer. In another well, 2.5 μL of 800 nM BSEC-1 solution was incubated with a pre-mixed solution of 2.5 μL of STA-200 solution and 30 ng of β-secretase so that the final volume is again 10 μL. Two control reactions were also set up in separate wells where one had only peptide in assay buffer while the other had peptide and inhibitor incubating in assay buffer. All samples were incubated at CRT for 15 minutes followed by the addition to each of 19.2 μL of Polymer A suspension (1×10^7 microspheres) in polymer buffer. The mixtures were then probed for emission at 530 nm by exciting them at 440 nm and using 475 nm cut-off filter. The mixture of peptide and enzyme alone gave a delta-over-control RFU of 4468±85. In comparison, a mixture of peptide, enzyme and 60 nM STA-200 (600 fmol) gave a delta-over-control RFU of 2746±241 while a mixture containing 250 nM STA-200 (2.5 pmol) gave a corresponding value of only 865±178.

[3] = target: Streptavidin-B-Phycoerythrin conjugate (SAv-BPE) (Streptomyces avidinii, UniProt P22629); test: Superquenching of fluorescent conjugate by β-secretase peptide substrate (Stern-Volmer); conditions: 2.5 nM solution of the fluorescent conjugate SAv-BPE
Chain of Streptavidin-B-Phycoerythrin conjugate (SAv-BPE) (P22629 25-183): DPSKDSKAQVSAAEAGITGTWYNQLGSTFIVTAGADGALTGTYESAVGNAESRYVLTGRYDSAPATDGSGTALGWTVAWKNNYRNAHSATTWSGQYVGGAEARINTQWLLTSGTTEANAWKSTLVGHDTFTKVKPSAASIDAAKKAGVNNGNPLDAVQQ
Chain of Streptavidin-B-Phycoerythrin conjugate (SAv-BPE) (P11392 whole entry partner): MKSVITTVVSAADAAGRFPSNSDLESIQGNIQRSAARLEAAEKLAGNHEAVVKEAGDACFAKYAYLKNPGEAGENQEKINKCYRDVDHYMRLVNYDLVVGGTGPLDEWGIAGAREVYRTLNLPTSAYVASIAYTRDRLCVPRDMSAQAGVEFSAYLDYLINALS
Chain of Streptavidin-B-Phycoerythrin conjugate (SAv-BPE) (P11393 whole entry partner): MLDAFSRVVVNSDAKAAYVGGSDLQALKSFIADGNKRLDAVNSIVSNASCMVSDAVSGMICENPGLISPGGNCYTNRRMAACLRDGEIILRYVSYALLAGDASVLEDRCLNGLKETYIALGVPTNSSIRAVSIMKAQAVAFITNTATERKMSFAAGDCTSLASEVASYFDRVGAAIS
Excerpt: In another embodiment of the invention, the fluorescent polymer is a biological ensemble comprising phycoerythrin or phycobilisome.

Caspase-3 enzyme = Caspase-3 enzyme (Homo sapiens, UniProt P42574); conditions: Example 10, peptide substrate with Caspase-3 at CRT; control without enzyme remains unchanged
Chain of Caspase-3 enzyme (P42574 29-175 limits assumed, species assumed): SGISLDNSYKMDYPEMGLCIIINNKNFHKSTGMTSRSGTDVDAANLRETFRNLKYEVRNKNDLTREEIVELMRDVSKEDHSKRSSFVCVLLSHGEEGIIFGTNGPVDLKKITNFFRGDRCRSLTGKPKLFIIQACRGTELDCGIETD
Chain of Caspase-3 enzyme (P42574 176-277 limits assumed, species assumed): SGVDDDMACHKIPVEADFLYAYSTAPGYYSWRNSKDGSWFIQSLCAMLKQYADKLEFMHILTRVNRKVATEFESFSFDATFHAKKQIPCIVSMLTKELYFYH
Protocol: To a known amount of the peptide substrate represented by SEQ ID NO:8 in assay buffer is added a sample solution of Caspase-3 enzyme in one well of a 384-well plate. In another well, the peptide substrate is taken without enzyme. The plate is incubated at CRT and the sample and control wells measured for fluorescence intensity at various time periods. […] An assay of this type is represented in FIG. 3.

[4] = Example 7: 300 nM substrate, 20 ng β-secretase, 30 minutes, SAv-BPE (Polymer E), ex 490 nm/em 576 nm
[5] = Example 7: 300 nM substrate, no enzyme, 30 minutes, SAv-BPE (Polymer E), ex 490 nm/em 576 nm
[6] = Example 3: 300 nM substrate, 10 ng β-secretase, 60 minutes at CRT, Biotin-R-PE doped polymer C, ex 440 nm/em 576 nm
[7] = Example 3: 300 nM substrate, no enzyme, 60 minutes at CRT, Biotin-R-PE doped polymer C, ex 440 nm/em 576 nm

T1 sequence (P56817 46-501): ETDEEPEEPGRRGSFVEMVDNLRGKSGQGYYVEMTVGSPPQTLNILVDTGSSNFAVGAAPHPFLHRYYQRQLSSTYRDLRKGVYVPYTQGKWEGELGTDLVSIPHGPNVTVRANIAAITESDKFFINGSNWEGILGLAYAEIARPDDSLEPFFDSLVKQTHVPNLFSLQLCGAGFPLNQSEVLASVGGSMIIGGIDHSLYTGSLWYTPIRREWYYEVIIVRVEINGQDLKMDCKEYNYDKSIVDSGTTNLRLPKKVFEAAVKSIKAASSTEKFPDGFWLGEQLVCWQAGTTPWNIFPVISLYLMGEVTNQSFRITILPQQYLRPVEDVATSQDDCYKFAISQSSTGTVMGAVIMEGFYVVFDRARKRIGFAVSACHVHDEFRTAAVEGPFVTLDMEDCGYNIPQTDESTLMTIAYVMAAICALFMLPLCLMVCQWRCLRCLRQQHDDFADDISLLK

Substance: (AZO)-TEEISEVNLDAEFK-(Nε-Biotin) [BSEC-3]
- RFU of sample (β-secretase [1]; Example 2: 400 nM substrate, 60 ng β-secretase, ten minutes at CRT, polymer A, ex 440 nm/em 530 nm): 10996±424 RFU
- RFU of control (β-secretase [1]; Example 2: 400 nM substrate, no enzyme, ten minutes at CRT, polymer A, ex 440 nm/em 530 nm): 8111±707 RFU
- RFU of sample (β-secretase [1]; Example 3: 300 nM substrate, 10 ng β-secretase, 60 minutes at CRT, Biotin-R-PE doped polymer C, ex 440 nm/em 576 nm, listed as BSEC-3a): 15022±743 RFU
- RFU of sample (β-secretase [1]; Example 3: 300 nM substrate, 10 ng β-secretase, 60 minutes at CRT, Biotin-R-PE doped polymer C, ex 440 nm/em 576 nm, listed as BSEC-3b): 12265±913 RFU
- RFU of control (β-secretase [1]; Example 3: 300 nM substrate, no enzyme, 60 minutes at CRT, Biotin-R-PE doped polymer C, ex 440 nm/em 576 nm, listed as BSEC-3a): 7656±20 RFU
- RFU of control (β-secretase [1]; Example 3: 300 nM substrate, no enzyme, 60 minutes at CRT, Biotin-R-PE doped polymer C, ex 440 nm/em 576 nm, listed as BSEC-3b): 6054±41 RFU
- average RFU of sample wells (β-secretase [1]; Example 6: 300 nM substrate, 30 ng β-secretase, 30 minutes at CRT, doped solution sensor D, ex 440 nm/em 576 nm): 14500±200 RFU
- average RFU of control wells (β-secretase [1]; Example 6: 300 nM substrate, no enzyme, 30 minutes at CRT, doped solution sensor D, ex 440 nm/em 576 nm): 5200±100 RFU
- average RFU of enzyme wells (β-secretase [1]; [4]): 18032±228 RFU
- average RFU of control wells (β-secretase [1]; [5]): 11639±335 RFU

Substance: KTEISEVN-(Sta)-VAEF-OH (KTEISEVN[Sta]VAEF-OH; N-terminus assumed; SMILES CC[C@H](C)[C@H](NC(=O)[C@H](CCC(=O)O)NC(=O)[C@@H](NC(=O)[C@@H](N)CCCCN)[C@@H](C)O)C(=O)N[C@@H](CO)C(=O)N[C@@H](CCC(=O)O)C(=O)N[C@H](C(=O)N[C@@H](CC(N)=O)C(=O)N[C@@H](CC(C)C)[C@@H](O)CC(=O)N[C@H](C(=O)N[C@@H](C)C(=O)N[C@@H](CCC(=O)O)C(=O)N[C@@H](Cc1ccccc1)C(=O)O)C(C)C)C(C)C) [STA-200]
- delta-over-control RFU (β-secretase [2]; 60 nM STA-200 (600 fmol)): 2746±241 RFU
- delta-over-control RFU (β-secretase [2]; 250 nM STA-200 (2.5 pmol)): 865±178 RFU
- IC50 value (β-secretase [2]; sample incubated for fifteen minutes): in the range of nanomolar concentrations

Substance: (QSY-7)-TEEISEVNLDAEFK-(Nε-Biotin) [BSEC-1]
- relative fluorescence units (RFU) of sample (β-secretase [1]; Example 1: 400 nM substrate, 20 ng β-secretase, 30 min at CRT, polymer A, ex 420 nm/em 530 nm): 9045±109 RFU
- relative fluorescence units (RFU) of control (β-secretase [1]; Example 1: 400 nM substrate, no enzyme, 30 min at CRT, polymer A, ex 420 nm/em 530 nm): 5529±286 RFU
- RFU of sample (β-secretase [1]; [6]): 9645±152 RFU
- RFU of control (β-secretase [1]; [7]): 6270±196 RFU
- RFU of sample wells containing enzyme (β-secretase [1]; Example 5: 400 nM substrate, 30 ng β-secretase, 30 minutes at CRT, solution sensor polymer B, ex 440 nm/em 530 nm): 8350±200 RFU
- average RFU of control wells (β-secretase [1]; Example 5: 400 nM substrate, no enzyme, 30 minutes at CRT, solution sensor polymer B, ex 440 nm/em 530 nm): 5400±200 RFU
- average RFU of enzyme wells (β-secretase [1]; [4]): 11828±556 RFU
- average RFU of control wells (β-secretase [1]; [5]): 7671±286 RFU
- delta-over-control RFU, peptide and enzyme alone (β-secretase [1]; Example 8: 2.5 μL of 800 nM substrate, 30 ng β-secretase, no inhibitor, 15 minutes at CRT, Polymer A, ex 440 nm/em 530 nm): 4468±85 RFU
- Stem-Volmer quenching constant [3]: ~1e+08 M⁻¹

Substance: D-E-V-D-Cyanine [SEQ ID NO:8]
- fluorescence intensity of sample with increasing time (Caspase-3 enzyme): increase in fluorescence

Substance: (AZO)-TKKISEVNLDAEFRK-(Nε-Biotin) [BSEC-4]
- RFU of sample (β-secretase [1]; [6]): 9732±319 RFU
- RFU of control (β-secretase [1]; [7]): 9207±364 RFU

— US20050014160A1, “Assays for protease enzyme activity” (priority 2003, published 2005)
